# According to publication PMC6677754, “In silico design and optimization of selective membranolytic anticancer peptides” (Scientific Reports, 2019):
# Peptide text beside a SMILES is read from it.
# What was measured:
# [1] = system: human erythrocytes; experiment: Hemolysis assay; type: cell-based; details: red cells of human, 1 h
# Experimental: Human erythrocytes were freshly ordered at the Blutspende Zürich. Erythrocytes were washed 3 times with a […] phosphate buffered saline (PBS, Gibco, Thermo Fisher Scientific, Waltham, MA, USA) solution centrifuging at 800 g for 10 min or until the supernatant appeared clear to remove the blood plasma. A 5% v/v erythrocytes : PBS solution was prepared for direct use. For HC50 determination, peptides were dissolved in PBS at an intermediate concentration of 1 mM. A dilution series of the peptide from 200 to 6.25 μM was plated in a round-bottomed 96-well plate in triplicates, with a volume of 50 μL per well. PBS buffer and a solution of 0.1% Triton-X-100 (Fisher Chemical, Loughborough, UK) in PBS were employed as negative and positive controls, respectively. 50 μL of the 5% erythrocyte solution were added in each well and the plates were incubated at 37°C for 1 h. After this time, 100 μL PBS were added to each well and plates were centrifuged at 800 g for 10 min. 100 μL of the supernatant were transferred to a flat-bottomed 96-well plate and the absorbance was measured at 540 nm in a Tecan Infinity M1000 spectrophotometer plate reader. The hemolysis percentage was calculated, considering the absorbance values of the Triton and PBS wells as 100% and 0% hemolysis, respectively.
# The resultant sigmoidal curves were analyzed with the drc22 R package using a log-logistic model with 3 fixed parameters to obtain the HC50 values. […]
# NCI-60 screening procedure […]
# Each peptide was tested in a 5-concentration assay, starting at 10^-4 M and diluting 10-fold to the lowest 10^-8 M concentration. The peptides were incubated for 48 h and the cell concentration was assayed by using the sulforhodamine B assay25 and optical density measurements. The growth inhibition (GI50) value24, measures the growth inhibitory power of the drug agent. The GI50 value is the concentration of the test drug for which the condition in Eq. S1 is met, where T is the optical density of the test well after a 48-h exposure to the peptide, T0 the optical density before applying the peptide drug and C the control optical density of a well where no peptide was applied.
# [2] = system: MCF7 breast adenocarcinoma cell line; experiment: Cell viability assay (MTT); type: cell-based, human; details: Table S2, 24 h, mean ± sd, N = 2 independent measurements with six technical replicates each (Figs S6-S8)
# How it was run: (§1)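 Viability by MTT: 10^4 cells/well exposed 24 h to 2-fold peptide dilutions from 100 μM in DMEM, then 1 h with 0.5 mg mL−1 MTT; absorbance at 540 nm relative to peptide-free medium as 100% survival. EC50 from a 3-parameter log-logistic fit.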
# [3] = system: A549 lung adenocarcinoma cell line; experiment: Cell viability assay (MTT); type: cell-based, human; details: Table S2; MTT, 24 h; mean ± sd; N = 2 independent measurements with six technical replicates each (Figs S6-S8); read-out: A549 EC50 /µM
# How it was run: as §1
# [4] = system: noncancer HDMEC primary cells (human dermal microvascular endothelial cells); experiment: Cell viability assay (MTT); type: cell-based; details: Table S2; noncancer primary cells; MTT, 24 h; mean ± sd; N = 2 independent measurements with six technical replicates each (Figs S6-S8)
# Experimental: 10% fetal bovine serum and 1% penicillin-streptomycin (Thermo Fisher Scientific, Waltham, MA, USA). The cultures were kept at 37°C in a 5% CO2 atmosphere incubator (Thermo Fisher Scientific, Waltham, MA, USA) and split every two to three days to new culture flasks. Cells no older than 20 passages were used for experiments.
# For splitting, the cell culture media was aspirated, the cells were washed with 0.01 M phosphate buffered saline (PBS, Gibco, Thermo Fisher Scientific, Waltham, MA, USA) and trypsin-EDTA (trypsin - ethylene diamine tetraacetic acid, Fisher scientific, UK) was added to the cell layer to detach them from the flask surface. After incubation for 2 min at 37°C, cells were resuspended with an equal volume of DMEM media and centrifuged at 310 g for 5 min at 4°C. After removal of the supernatant the cells were resuspended in DMEM cell media and split into new cell culture flasks at a 1/3 to 1/5 ratio.
# Determination of the anticancer peptides half effective concentration (EC50) was performed by a 3-(4,5-dimethylthiazol-2-yl)-2,5-diphenyltetrazolium bromide (MTT) assay, as described elsewhere21. Briefly, […] were seeded in each well of a 96-well plate and left to adhere and […]
# sulfoxide (DMSO, Fisher Scientific, UK) at an intermediate concentration of 1 mM. The peptides were then diluted in a 2-fold dilution series starting at 100 μM with DMEM culture media. Cells were incubated with the peptide solutions for 24 h. After this time, the cell media was removed and the cells were incubated for 1 h with a 0.5 mg mL−1 MTT solution to allow enough time for formazan crystal formation (Sigma Aldrich, Steinheim, Germany). The supernatant was removed and 100 μL of DMSO were added into each well to resuspend the formazan crystals.
# After manually shaking the plates to completely dissolve the crystals, the absorbance was measured at 540 nm in a Tecan Infinity M1000 spectrophotometer. The cell viability was determined based on the quantification of the color intensity in each culture well, considering the absorbance obtained by the control media without peptides as a 100% survival. The resultant sigmoidal curves were analyzed with the drc22 R package using a log-logistic model
Compound,Eryhtr. HC50 /µM [1] [µM],EC50 [2] [µM],EC50 [3] [µM],EC50 [4] [µM]
CC[C@H](C)[C@H](NC(=O)[C@H](CCCCN)NC(=O)CNC(=O)[C@@H](NC(=O)[C@@H](NC(=O)[C@H](Cc1c[nH]cn1)NC(=O)[C@H](Cc1c[nH]c2ccccc12)NC(=O)[C@@H]1CCCN1C(=O)[C@H](CCCCN)NC(=O)[C@H](CCCCN)NC(=O)[C@H](CC(C)C)NC(=O)[C@H](Cc1ccccc1)NC(=O)[C@H](Cc1c[nH]cn1)NC(=O)[C@H](CCCNC(=N)N)NC(=O)[C@H](Cc1ccccc1)NC(=O)[C@H](CCCCN)NC(=O)[C@H](CCCCN)NC(=O)[C@H](Cc1ccc(O)cc1)NC(=O)[C@H](CC(C)C)NC(=O)[C@@H](N)[C@@H](C)O)C(C)C)C(C)C)C(N)=O [Off2.3] (H-TLYKKFRHFLKKPWHVVGKI-NH2),> 200,65 ± 3,> 100,167 ± 13
CC[C@H](C)[C@H](NC(=O)[C@H](Cc1c[nH]cn1)NC(=O)[C@H](Cc1c[nH]c2ccccc12)NC(=O)[C@H](C)NC(=O)[C@H](CCCNC(=N)N)NC(=O)[C@H](CCCNC(=N)N)NC(=O)[C@H](CC(C)C)NC(=O)[C@H](Cc1c[nH]c2ccccc12)NC(=O)[C@@H](NC(=O)[C@H](CCCNC(=N)N)NC(=O)[C@@H](NC(=O)[C@H](CCCNC(=N)N)NC(=O)[C@H](CCCNC(=N)N)NC(=O)[C@H](CC(C)C)NC(=O)[C@H](Cc1ccc(O)cc1)NC(=O)[C@@H](N)CCC(N)=O)C(C)C)[C@@H](C)O)C(=O)N[C@@H](CC(C)C)C(=O)NCC(=O)N[C@@H](CCCCN)C(=O)N[C@H](C(N)=O)C(C)C [Off2.2.8] (H-QYLRRVRTWLRRAWHILGKV-NH2),21 ± 1,11 ± 0.2,16.5 ± 0.2,10.3 ± 0.3
CC[C@H](C)[C@H](NC(=O)[C@H](CC(C)C)NC(=O)[C@H](CCCCN)NC(=O)[C@H](Cc1ccccc1)NC(=O)[C@@H](NC(=O)[C@H](CCCCN)NC(=O)[C@H](CCCCN)NC(=O)[C@H](Cc1ccccc1)NC(=O)[C@H](Cc1c[nH]c2ccccc12)NC(=O)[C@@H](NC(=O)[C@H](CCCCN)NC(=O)[C@H](CC(C)C)NC(=O)[C@H](Cc1c[nH]cn1)NC(=O)[C@H](CCCNC(=N)N)NC(=O)[C@@H](NC(=O)[C@H](Cc1ccc(O)cc1)NC(=O)[C@@H](N)CCCCN)[C@@H](C)CC)[C@@H](C)O)C(C)C)C(=O)NCC(=O)N[C@@H](CCC(=O)O)C(=O)N[C@H](C(N)=O)C(C)C [Off4] (H-KYIRHLKTWFKKVFKLIGEV-NH2),20 ± 3,11 ± 2,15 ± 0.1,7.1 ± 0.1
CC[C@H](C)[C@H](NC(=O)[C@H](CCCNC(=N)N)NC(=O)[C@H](Cc1ccccc1)NC(=O)[C@H](CC(C)C)NC(=O)[C@H](CCCCN)NC(=O)[C@H](CCCCN)NC(=O)[C@H](Cc1c[nH]c2ccccc12)NC(=O)[C@H](Cc1ccc(O)cc1)NC(=O)[C@@H](NC(=O)[C@H](CCCCN)NC(=O)[C@@H](NC(=O)[C@H](CCCCN)NC(=O)[C@H](CCCCN)NC(=O)[C@H](Cc1ccccc1)NC(=O)[C@@H](NC(=O)[C@@H](N)Cc1c[nH]cn1)[C@@H](C)CC)C(C)C)[C@@H](C)O)C(=O)N[C@@H](CC(C)C)C(=O)NCC(=O)N[C@@H](CCCNC(=N)N)C(=O)N[C@@H](Cc1ccccc1)C(N)=O [Off6] (H-HIFKKVKTYWKKLFRILGRF-NH2),16 ± 2,12 ± 3,18 ± 2,5 ± 0.7
CC[C@H](C)[C@H](NC(=O)[C@H](CC(C)C)NC(=O)[C@@H](N)CCCNC(=N)N)C(=O)N[C@@H](CCCCN)C(=O)N[C@@H](CCCNC(=N)N)C(=O)N[C@@H](CC(C)C)C(=O)N[C@@H](CCCCN)C(=O)N[C@H](C(=O)N[C@@H](Cc1ccccc1)C(=O)N[C@H](C(=O)N[C@@H](CCCNC(=N)N)C(=O)N[C@@H](CCCCN)C(=O)N[C@H](C(=O)N[C@@H](Cc1c[nH]c2ccccc12)C(=O)N[C@@H](CCCCN)C(=O)N[C@@H](Cc1c[nH]c2ccccc12)C(=O)N[C@H](C(=O)NCC(=O)N[C@@H](Cc1c[nH]cn1)C(=O)N[C@@H](Cc1ccccc1)C(N)=O)C(C)C)[C@@H](C)O)C(C)C)[C@@H](C)O [Off7] (H-RLIKRLKTFVRKTWKWVGHF-NH2),95 ± 7,39 ± 3,52 ± 2,12 ± 3
CC[C@H](C)[C@H](NC(=O)[C@H](CC(C)C)NC(=O)[C@@H](N)Cc1c[nH]cn1)C(=O)N[C@@H](Cc1c[nH]cn1)C(=O)N[C@@H](CCCNC(=N)N)C(=O)N[C@@H](CC(C)C)C(=O)N[C@@H](Cc1c[nH]cn1)C(=O)N[C@H](C(=O)N[C@@H](Cc1ccc(O)cc1)C(=O)N[C@@H](Cc1c[nH]c2ccccc12)C(=O)N[C@@H](Cc1c[nH]cn1)C(=O)N[C@@H](CCCCN)C(=O)N1CCC[C@H]1C(=O)N[C@@H](Cc1c[nH]c2ccccc12)C(=O)N[C@@H](Cc1c[nH]cn1)C(=O)N[C@@H](Cc1ccc(O)cc1)C(=O)N[C@@H](CC(C)C)C(=O)NCC(=O)N[C@@H](CCCCN)C(=O)N[C@@H](CC(C)C)C(N)=O)[C@@H](C)O [Off2.9] (H-HLIHRLHTYWHKPWHYLGKL-NH2),> 200,> 100,> 100,135 ± 2
CC[C@H](C)[C@H](NC(=O)[C@H](CCC(N)=O)NC(=O)[C@H](Cc1ccccc1)NC(=O)[C@H](C)NC(=O)[C@H](CCCCN)NC(=O)[C@H](CCCCN)NC(=O)[C@H](Cc1ccc(O)cc1)NC(=O)[C@H](Cc1c[nH]c2ccccc12)NC(=O)[C@@H](NC(=O)[C@H](CCCCN)NC(=O)[C@@H](NC(=O)[C@H](CCCCN)NC(=O)[C@H](CCCCN)NC(=O)[C@H](Cc1ccccc1)NC(=O)[C@@H](NC(=O)[C@@H](N)CCC(N)=O)[C@@H](C)CC)C(C)C)[C@@H](C)O)C(=O)N[C@@H](CC(C)C)C(=O)NCC(=O)N[C@@H](CCCNC(=N)N)C(=O)N[C@@H](CC(C)C)C(N)=O [Off2.6] (H-QIFKKVKTWYKKAFQILGRL-NH2),> 100,9.3 ± 0.2,12.4 ± 0.1,21 ± 2
CC[C@H](C)[C@H](NC(=O)[C@H](CCCCN)NC(=O)[C@@H]1CCCN1C(=O)[C@H](Cc1c[nH]c2ccccc12)NC(=O)[C@@H](NC(=O)[C@H](Cc1c[nH]cn1)NC(=O)[C@H](Cc1c[nH]c2ccccc12)NC(=O)[C@H](C)NC(=O)[C@H](CCCCN)NC(=O)[C@H](CCCCN)NC(=O)[C@@H](NC(=O)[C@H](Cc1c[nH]c2ccccc12)NC(=O)[C@@H](NC(=O)[C@H](Cc1c[nH]cn1)NC(=O)[C@H](CC(C)C)NC(=O)[C@H](CCC(N)=O)NC(=O)[C@H](CCCNC(=N)N)NC(=O)[C@@H](NC(=O)[C@H](CCCNC(=N)N)NC(=O)[C@@H](N)CCC(N)=O)[C@@H](C)CC)[C@@H](C)O)[C@@H](C)CC)[C@@H](C)CC)C(N)=O [Off2.10] (H-QRIRQLHTWIKKAWHIWPKI-NH2),> 200,28.6 ± 0.1,40 ± 2,39.7 ± 0.3
